In patent US20140221346A1, “THERAPEUTIC COMPOUNDS” (Gilead Sciences, Inc., priority 2013, published 2014) one finds inhibition and CC50 data, which are given here for 9 compounds.

One series concerns HIV-IIIb. The experiment in a line: Test A: Antiviral Assay in MT4 Cells. The series is classed as cell-based, HIV-1. Conditions: Human immunodeficiency virus 1, IIIB, MT4, 120 h, read-out: % inhibition at 3 μM. The method, then: (§1) For the antiviral assay, 40 μL of 1× test concentration of 3-fold serially diluted compound in culture medium with 10% FBS was added to each well of a 384-well plate (10 concentrations) in quadruplicate. MT-4 cells were next mixed with HIV-IIIb at an m.o.i of 0.003 for 1 hour, after which time 35 μL of virus/cell mixture (2000 cells) was immediately added to each well containing 40 μL of diluted compound. The plates were then incubated at 37° C. for 5 days. After 5 days of incubation, 25 μl of 2× concentrated CellTiter-Glo™ Reagent (catalog #G7571, Promega Biosciences, Inc., Madison, Wis.) was added to each well containing MT-4 cells. Cell lysis was carried out by incubating at room temperature for 10 min and then chemiluminescence was read.

A short description of series [1]: Test B: Cytotoxicity Assay. The class given is cell-based. Conditions: human, uninfected MT-4 cells, same protocol as Test A, CellTiter-Glo. The method, then:
as §1
Compound cytotoxicity and the corresponding CC50 values was determined using the same protocol as described in the antiviral assay (Test A) except that uninfected cells were used.
For orientation: ATP-based viability assays read luminescence as a measure of living cells.

`NC(=O)c1cc(-c2ccc(N)nc2[C@H](Cc2cc(F)cc(F)c2)NC(=O)Cc2c[nH]c3ccc(F)cc23)ccc1F` [Compound 1H, (S)-5-(6-amino-2-(2-(3,5-difluorophenyl)-1-(2-(5-fluoro-1H-indol-3-yl)acetamido)ethyl)pyridin-3-yl)-2-fluorobenzamide]: in the series on HIV-IIIb, the inhibition (usually the change of the read-out against control, counted positive when it falls) at 3 µM worked out at 98%. Also, half-maximal cytotoxicity in series [1] (CC50 at 5 days) was put at 22.1 µM.
`CN(C)CCNc1ncc(-c2ccc(F)c(C(N)=O)c2)c([C@H](Cc2cc(F)cc(F)c2)NC(=O)Cn2nc(C(F)F)c3c2C(F)(F)CCC3(F)F)n1` [Compound 16B, (S)-5-(4-(1-(2-(3-(difluoromethyl)-4,4,7,7-tetrafluoro-4,5,6,7-tetrahydro-1H-indazol-1-yl)acetamido)-2-(3,5-difluorophenyl)ethyl)-2-((2-(dimethylamino)ethyl)amino)pyrimidin-5-yl)-2-fluorobenzamide]: the inhibition at 3 µM in the series on HIV-IIIb stood at 41%. In addition, the midpoint of cytotoxicity in series [1], the CC50 at 5 days, lay at 15.4 µM.
Turning to `NC(=O)c1cccc(-c2ccc(N)nc2C(Cc2cc(F)cc(F)c2)NC(=O)Cc2c[nH]c3ccc(F)cc23)c1` (stereo not drawn) [Compound 4, 3-(6-amino-2-(2-(3,5-difluorophenyl)-1-(2-(5-fluoro-1H-indol-3-yl)acetamido)ethyl)pyridin-3-yl)benzamide], the inhibition at 3 µM with HIV-IIIb came to 94%. For the same compound, in series [1], half-maximal cytotoxicity (CC50 at 5 days) was put at 13.1 µM.
On to `Nc1ccc(-c2ccc(Oc3ccccc3)cc2)c(C(Cc2cc(F)cc(F)c2)NC(=O)Cc2c[nH]c3ccc(F)cc23)n1` (stereo not drawn) [Compound 7, N-(1-(6-amino-3-(4-phenoxyphenyl)pyridin-2-yl)-2-(3,5-difluorophenyl)ethyl)-2-(5-fluoro-1H-indol-3-yl)acetamide], for which the inhibition at 3 µM in the series with HIV-IIIb is 37%. Also, in series [1], the half-maximal cytotoxic concentration (CC50) (usually the concentration at which the toxic effect on the cells reaches its halfway point) at 5 days stood at 11.5 µM.
Taken in the same sequence, the figures for `NC(=O)c1cc(-c2cnc(NCCN3CCCC3=O)nc2[C@H](Cc2cc(F)cc(F)c2)NC(=O)Cn2nc(C(F)F)c3c2C(F)(F)CCC3(F)F)ccc1F` [Compound 24, (S)-5-(4-(1-(2-(3-(difluoromethyl)-4,4,7,7-tetrafluoro-4,5,6,7-tetrahydro-1H-indazol-1-yl)acetamido)-2-(3,5-difluorophenyl)ethyl)-2-((2-(2-oxopyrrolidin-1-yl)ethyl)amino)pyrimidin-5-yl)-2-fluorobenzamide] were 79% and 37.2 µM.
For `COCCNc1ncc(-c2ccc(F)c(C(N)=O)c2)c([C@@H](Cc2cc(F)cc(F)c2)NC(=O)Cn2nc(C(F)(F)F)c3c2CCCC3)n1` [Compound 11J, (R)-5-(4-(2-(3,5-difluorophenyl)-1-(2-(3-(trifluoromethyl)-4,5,6,7-tetrahydro-1H-indazol-1-yl)acetamido)ethyl)-2-((2-methoxyethyl)amino)pyrimidin-5-yl)-2-fluorobenzamide], the inhibition at 3 µM with HIV-IIIb worked out at 0%. Moreover, the CC50 at 5 days in series [1] was found to be 16.3 µM.
For `NC(=O)c1cc(-c2cnc(N3CCC(O)CC3)nc2[C@H](Cc2cc(F)cc(F)c2)NC(=O)Cn2nc(C(F)F)c3c2C(F)(F)CCC3(F)F)ccc1F` [Compound 21, (S)-5-(4-(1-(2-(3-(difluoromethyl)-4,4,7,7-tetrafluoro-4,5,6,7-tetrahydro-1H-indazol-1-yl)acetamido)-2-(3,5-difluorophenyl)ethyl)-2-(4-hydroxypiperidin-1-yl)pyrimidin-5-yl)-2-fluorobenzamide] the same measures were 41% and 22.5 µM.
`NC(=O)c1cc(-c2cnc(NC3CCOC3)nc2[C@H](Cc2cc(F)cc(F)c2)NC(=O)Cn2nc(C(F)F)c3c2C(F)(F)CCC3(F)F)ccc1F` (stereo partly drawn) [Compound 25, 5-(4-((S)-1-(2-(3-(difluoromethyl)-4,4,7,7-tetrafluoro-4,5,6,7-tetrahydro-1H-indazol-1-yl)acetamido)-2-(3,5-difluorophenyl)ethyl)-2-((tetrahydrofuran-3-yl)amino)pyrimidin-5-yl)-2-fluorobenzamide]: the inhibition at 3 µM in the series with HIV-IIIb stood at 69%. In series [1], this compound displayed a CC50 at 5 days of 37.7 µM.
For the compound `CNc1ncc(-c2ccc(F)c(C(N)=O)c2)c([C@H](Cc2cc(F)cc(F)c2)NC(=O)Cn2nc(C(F)F)c3c2C(F)(F)CCC3(F)F)n1` [Compound 14B, (S)-5-(4-(1-(2-(3-(difluoromethyl)-4,4,7,7-tetrafluoro-4,5,6,7-tetrahydro-1H-indazol-1-yl)acetamido)-2-(3,5-difluorophenyl)ethyl)-2-(methylamino)pyrimidin-5-yl)-2-fluorobenzamide], in the series with HIV-IIIb, the inhibition at 3 µM came out at 89%. In series [1], the CC50 at 5 days was found to be 28.6 µM.
